The values below come from patent US9198886B2, “Use of 2,5-dihydroxybenzene for the treatment of ocular diseases” (priority 2006, dated 2015).

The target in experiment [1] is fibroblast growth factor-1 (FGF-1) (Homo sapiens, UniProt P05230). In words: Co-crystal structure with fibroblast growth factor-1. Type of experiment: binding. The source says:
FIG. 24. 2-acetoxy-5-hydroxybenzenesulfonic acid co-crystallized with fibroblast growth factor-1. […] The compound occupies a place that is very close to that described occupied by 2,5-dihydroxybenzenesulfonic acid, the aromatic ring of which forms a cation-π bond with the N^ε group of lysine 132, which is marked in panel A as reference. […] In panels A and B, the protein surface is colored according to its electrostatic potential (light grey: negative charge; dark grey: positive charge; white: lack of charge).
FIG. 25. 5-acetoxy-2-hydroxybenzenesulfonic acid co-crystallized with fibroblast growth factor-1. […] The compound occupies a place that is very close to that described occupied by 2,5-dihydroxybenzenesulfonic acid, the aromatic ring of which forms a cation-π bond with the N^ε group of lysine 132, which is marked in panel A as reference. […] In panels A and B, the protein surface is colored according to its electrostatic potential (light grey: negative charge; dark grey: positive charge; white: lack of charge).
FIG. 26. 2,5-diacetoxybenzenesulfonic acid co-crystallized with fibroblast growth factor-1. […] The compound occupies a place that is very close to that described occupied by 2,5-dihydroxybenzenesulfonic acid, the aromatic ring of which forms a cation-π bond with the N^ε group of lysine 132, which is marked in panel A as reference. […] In panels A and B, the protein surface is colored according to its electrostatic potential (light grey: negative charge; dark grey: positive charge; white: lack of charge).
Based on the crystal diffraction of the FGF-1:2-acetoxy-5-hydroxybenzene sulfonic acid, FGF-1:5-acetoxy-2-hydroxybenzene sulfonic acid and FGF-1:2,5-diacetoxybenzene sulfonic acid complexes, the structures of the complexes were calculated and represented. FIGS. 24, 25 and 26, which show the surface of the dyed protein according to its electrostatic potential (light grey: negative charge; dark grey: positive charge; white: lack of charge), show the manner in which 2-acetoxy-5-hydroxybenzene sulfonic acid, 5-acetoxy-2-hydroxybenzene sulfonic acid and 2,5-diacetoxybenzene sulfonic acid interact, respectively, with FGF-1.

For experiment [2], the system named is human retinal endothelial cells (HREC). The experiment in a line: Proliferation of human retinal endothelial cells (crystal violet). Format: cell-based. To be noted: 100 μM, 72 hours; DHBS as calcium salt. The procedure:
(§1) Primary cultures of human retinal endothelial cells (HREC) were used. Cells were obtained from Cell Systems (Virginia, USA) and subcultured with CSC complete medium (Cell Systems). Cells at 2 to 5 passages were seeded in 24-well plates at 7,500 cells/well density and, once attached, the cells were treated or not treated (controls) with 2A-5HBS (500 and 1000 μM) or 5A-2HBS (500 and 1000 μM) and they were allowed to proliferate for 72 hours, with daily medium changes. After that, the proliferation of HREC was evaluated by staining the fixed cells with crystal violet. The number of cells is proportional to the amount of retained dye, which was spectrophotometrically determined by measuring absorbance at 595 nm after removing the dye from the cells. Data are expressed as the percentage of absorbance at 595 nm obtained in control conditions. Data were obtained from two different experiments performed in triplicate.
as §1, with “2,5-DHCME (50” for “2A-5HBS (500”, “100” for “1000 μM) or 5A-2HBS (500 and 1000”, “changes. Under the same conditions, other cultures were treated with calcium 2,5-dihydroxybenzenesulfonate (DHBS; 100 μM) for comparison.” for “changes.”

The subject of another experiment is endometriotic lesions. The experiment in a line: Rat model of endometriosis, histology of autologous implant. Format: in vivo, Sprague-Dawley rats. The conditions noted are these: 200 mg/kg/day i.p., two weeks. The source says:
In these rats, the epithelial layer (a) and the stroma (b) are clearly observed in the endometrium, while longitudinal (c) and circular (d) normal layers of smooth muscle cells are observed in the myometrium adjacent to the peritoneal tissue (e). […] The neovascularization observed in the uterine tissue implanted in control rats (shown with arrows in A) is not present in rats treated with 2,5-dihydroxybenzenesulfonic (DHBS) (C). • D) Magnification of the area marked with a box in C.
Sprague-Dawley rats were anesthetized as described (Fernández-Tornero C et al. J Biol Chem, 2003). Endometriotic lesions were induced using a known rat model of endometriosis (Vernon M W and Wilson E A. Fertil Steril, 1985). In summary, 2 mm fragments of the cervix were autologously implanted between branches in the mesenteric vascular tree. The rats were treated or not treated (control) daily during two weeks after the surgery with 2,5-dihydroxybenzene sulfonic acid (DHBS) (200 mg/kg; i.p.). Then, the rats were sacrificed and the endometrial ectopic tissue was removed to make its histological examination. […] This example illustrates the therapeutic activity of 2,5-dihydroxybenzene sulfonate (DHBS) in the treatment of endometriosis.

fibroblast growth factor-1 (FGF-1), sequence (P05230 whole entry, species assumed): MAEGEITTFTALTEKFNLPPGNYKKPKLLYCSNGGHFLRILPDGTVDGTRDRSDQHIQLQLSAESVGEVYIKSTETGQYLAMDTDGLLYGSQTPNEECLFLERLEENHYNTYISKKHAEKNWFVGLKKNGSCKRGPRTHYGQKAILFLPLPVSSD

Regarding `CC(=O)Oc1ccc(OC(C)=O)c(S(=O)(=O)[O-])c1.[K+]` [DABS, potassium 2,5-diacetoxybenzene sulfonate], in experiment [1] (crystal diffraction of the complex), the “binding site on FGF-1” value is recorded as “very close to the one that has been described occupied by 2,5-dihydroxybenzene sulfonic acid”. In addition, the “acetoxyl groups of the compound when bound to FGF-1” value in experiment [1] (crystal diffraction, electron density contoured at 1σ) is recorded as “conserve the acetoxyl groups”.
In the case of `O=S(=O)(O)c1cc(O)ccc1O` [DHBS, 2,5-dihydroxybenzene sulfonic acid], the HREC proliferation entry in experiment [2] is “failed to significantly affect HREC proliferation”. Besides, in the experiment with endometriotic lesions, the “histology of implanted tissue (hematoxylin-eosin)” value was “athrophy of the cervix tissue implanted” and the “neovascularization of implanted uterine tissue” value is “not present”.
